Data as given in US20140107568A1, “METHOD OF DETERMINING AN INJECTED DOSE BASED ON A KNOWN ORAL DOSE” (ANTARES PHARMA, INC., priority 2012, published 2014).

From the text: An algorithm was developed to correlate a known oral dose of methotrexate to a jet injector dose. Table 1 illustrates the calculated correlation between oral doses and needle-assisted jet injector doses of methotrexate. The second column illustrates the precise subcutaneous dose calculated based on the algorithm, described in detail below. The third column represents the administrable dose, based on commercially available doses, closest in value to the precise calculated dose.
Based on the data set forth in table 1, a line equation of y=mx+b was developed to correlate an oral dose of methotrexate to an equivalent dose for use with a jet injector. In the present equation, illustrated by the graph shown in FIG. 1, the slope, m, was determined to be 0.6101 and a y-intercept, b, to be 2.9274. The correlation coefficient of the line, R^2, is 0.9594.

- slope, m, of line equation y=mx+b correlating oral dose to equivalent jet injector dose: 0.6101
- y-intercept, b, of line equation y=mx+b correlating oral dose to equivalent jet injector dose: 2.9274
Structure (SMILES): CN(Cc1cnc2nc(N)nc(N)c2n1)c1ccc(C(=O)N[C@@H](CCC(=O)O)C(=O)O)cc1 [methotrexate]
